Legend:
Format in all cases: cell-based
[1] = target: T1, CYP1A1 (Mus musculus, UniProt P00184); assay: Inhibition of CYP1A1 in mouse RAW264.7 cells assessed as relative activity by measuring fold change at 5 uM incubated for 12 hrs by EROD assay relative to control; settings: read-out: FC
T1 sequence (P00184 whole entry): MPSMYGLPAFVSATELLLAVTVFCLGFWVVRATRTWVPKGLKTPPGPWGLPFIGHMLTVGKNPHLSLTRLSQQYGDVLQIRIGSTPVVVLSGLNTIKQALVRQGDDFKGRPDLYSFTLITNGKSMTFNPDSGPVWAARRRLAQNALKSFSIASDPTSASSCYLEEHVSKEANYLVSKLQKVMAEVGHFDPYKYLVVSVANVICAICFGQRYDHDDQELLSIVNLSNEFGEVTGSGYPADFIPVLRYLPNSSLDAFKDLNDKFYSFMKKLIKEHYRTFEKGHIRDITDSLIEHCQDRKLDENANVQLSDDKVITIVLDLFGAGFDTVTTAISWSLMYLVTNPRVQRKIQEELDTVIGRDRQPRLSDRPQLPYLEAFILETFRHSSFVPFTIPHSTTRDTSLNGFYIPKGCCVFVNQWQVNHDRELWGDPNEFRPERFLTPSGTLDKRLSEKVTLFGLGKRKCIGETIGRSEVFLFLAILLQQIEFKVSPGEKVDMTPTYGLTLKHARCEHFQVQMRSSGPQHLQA

[2] = target: T2, CYP1A1 (Homo sapiens, UniProt P04798); assay: Inhibition of CYP1A1 in human Caco-2 cells assessed as relative activity by measuring fold change at 500 nM incubated for 12 hrs by EROD assay relative to control; settings: read-out: FC
T2 sequence (P04798 whole entry): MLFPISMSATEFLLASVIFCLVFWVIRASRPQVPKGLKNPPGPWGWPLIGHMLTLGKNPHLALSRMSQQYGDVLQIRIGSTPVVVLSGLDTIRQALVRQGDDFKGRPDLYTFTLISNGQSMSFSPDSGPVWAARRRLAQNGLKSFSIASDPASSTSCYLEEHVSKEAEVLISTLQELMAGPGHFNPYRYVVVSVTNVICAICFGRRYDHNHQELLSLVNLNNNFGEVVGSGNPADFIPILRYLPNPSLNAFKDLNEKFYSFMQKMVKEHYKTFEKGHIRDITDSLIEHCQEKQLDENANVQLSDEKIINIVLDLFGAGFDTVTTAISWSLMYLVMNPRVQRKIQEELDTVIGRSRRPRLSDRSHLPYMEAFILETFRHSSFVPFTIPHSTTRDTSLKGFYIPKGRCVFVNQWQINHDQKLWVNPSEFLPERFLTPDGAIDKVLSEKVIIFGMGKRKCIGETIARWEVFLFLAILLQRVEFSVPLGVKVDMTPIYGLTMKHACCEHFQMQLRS

[3] = target: T1, CYP1A1; assay: Inhibition of CYP1A1 in mouse RAW264.7 cells assessed as relative activity by measuring fold change at 500 nM incubated for 12 hrs by EROD assay relative to control; settings: read-out: FC
[4] = target: T3, Cytochrome P450 1A1 (Homo sapiens, UniProt P04798); assay: Inhibition of CYP1A1 in human Caco-2 cells assessed as relative activity by measuring fold change at 5.0 uM incubated for 12 hrs by EROD assay relative to control; settings: caco-2, 12 h
T3 sequence (P04798 whole entry): T2 sequence (P04798 whole entry)

## Cn1c(=O)n(C)c2cc(C(=O)/C=C/C#C[Si](C)(C)C)ccc21
[1]
  fold induction at 12 h, 5 µM: 0.15
[2]
  fold induction at 12 h, 0.5 µM: 0.66
[3]
  fold induction at 12 h, 0.5 µM: 0.55
[4]
  fold change (FC): 0.11

## Cn1c(=O)n(C)c2cc(C(=O)/C=C/c3ccoc3)ccc21
[1]
  fold induction at 12 h, 5 µM: 0.67
[2]
  fold induction at 12 h, 0.5 µM: 0.57
[3]
  fold induction at 12 h, 0.5 µM: 0.93
[4]
  fold change (FC): 0.18

## Cn1c(=O)n(C)c2cc(C(=O)/C=C/c3cnc4ccccc4c3)ccc21
[1]
  fold induction at 12 h, 5 µM: 0.29
[2]
  fold induction at 12 h, 0.5 µM: 0.62
[3]
  fold induction at 12 h, 0.5 µM: 1.03
[4]
  fold change (FC): 0.15

## CN(C)c1ccc(/C=C/C(=O)c2ccc3c(c2)n(C)c(=O)n3C)cc1
[1]
  fold induction at 12 h, 5 µM: 0.54
[2]
  fold induction at 12 h, 0.5 µM: 0.52
[3]
  fold induction at 12 h, 0.5 µM: 1.05
[4]
  fold change (FC): 0.24

## Cn1cccc1/C=C/C(=O)c1ccc2c(c1)n(C)c(=O)n2C
[1]
  fold induction at 12 h, 5 µM: 1.07
[2]
  fold induction at 12 h, 0.5 µM: 0.45
[3]
  fold induction at 12 h, 0.5 µM: 1.47
[4]
  fold change (FC): 0.09

## C#Cc1ccc(/C=C/C(=O)c2ccc(N(C)C(C)=O)cc2)cc1
[1]
  fold induction at 12 h, 5 µM: 1.04
[2]
  fold induction at 12 h, 0.5 µM: 0.81
[3]
  fold induction at 12 h, 0.5 µM: 1.16
[4]
  fold change (FC): 0.78

## Cn1c(=O)n(C)c2cc(C(=O)/C=C/c3cccn3C(=O)OC(C)(C)C)ccc21
[1]
  fold induction at 12 h, 5 µM: 0.55
[2]
  fold induction at 12 h, 0.5 µM: 0.9
[3]
  fold induction at 12 h, 0.5 µM: 0.69
[4]
  fold change (FC): 0.67

## Cn1c(=O)n(C)c2cc(C(=O)/C=C/c3cc(F)cc(F)c3)ccc21
[1]
  fold induction at 12 h, 5 µM: 0.89
[2]
  fold induction at 12 h, 0.5 µM: 0.89
[3]
  fold induction at 12 h, 0.5 µM: 0.76
[4]
  fold change (FC): 0.74

## Cn1c(=O)n(C)c2cc(C(=O)/C=C/c3cc4ccccc4s3)ccc21
[1]
  fold induction at 12 h, 5 µM: 0.77
[2]
  fold induction at 12 h, 0.5 µM: 0.81
[3]
  fold induction at 12 h, 0.5 µM: 1.12
[4]
  fold change (FC): 0.56

## C#Cc1ccc(/C=C/C(=O)c2ccc(NC(C)=O)cc2)cc1
[1]
  fold induction at 12 h, 5 µM: 0.57
[2]
  fold induction at 12 h, 0.5 µM: 0.76
[3]
  fold induction at 12 h, 0.5 µM: 1.12
[4]
  fold change (FC): 0.43

## Cn1c(=O)n(C)c2cc(C(=O)/C=C/c3cc4ccccc4o3)ccc21
[1]
  fold induction at 12 h, 5 µM: 0.52
[2]
  fold induction at 12 h, 0.5 µM: 0.66
[3]
  fold induction at 12 h, 0.5 µM: 0.82
[4]
  fold change (FC): 0.31

## Cn1c(=O)n(C)c2cc(C(=O)/C=C/c3ccc(C(C)(C)C)cc3)ccc21
[1]
  fold induction at 12 h, 5 µM: 0.51
[2]
  fold induction at 12 h, 0.5 µM: 0.98
[3]
  fold induction at 12 h, 0.5 µM: 0.64
[4]
  fold change (FC): 0.97

## Cn1c(=O)n(C)c2cc(C(=O)/C=C/c3ccco3)ccc21
[1]
  fold induction at 12 h, 5 µM: 0.31
[2]
  fold induction at 12 h, 0.5 µM: 0.87
[3]
  fold induction at 12 h, 0.5 µM: 0.5
[4]
  fold change (FC): 0.47

## Cn1c(=O)n(C)c2cc(C(=O)/C=C/c3coc4ccccc34)ccc21
[1]
  fold induction at 12 h, 5 µM: 0.22
[2]
  fold induction at 12 h, 0.5 µM: 1.29
[3]
  fold induction at 12 h, 0.5 µM: 0.5
[4]
  fold change (FC): 0.9

## Cn1c(=O)n(C)c2cc(C(=O)/C=C/c3ccc([N+](=O)[O-])o3)ccc21
[1]
  fold induction at 12 h, 5 µM: 0.24
[2]
  fold induction at 12 h, 0.5 µM: 0.71
[3]
  fold induction at 12 h, 0.5 µM: 0.95
[4]
  fold change (FC): 0.28

## Cn1c(=O)n(C)c2cc(C(=O)/C=C/c3cc(F)c(F)cc3F)ccc21
[1]
  fold induction at 12 h, 5 µM: 0.79
[2]
  fold induction at 12 h, 0.5 µM: 0.35
[3]
  fold induction at 12 h, 0.5 µM: 1.11
[4]
  fold change (FC): 0.1

## Cn1c(=O)n(C)c2cc(C(=O)/C=C/c3ccccn3)ccc21
[1]
  fold induction at 12 h, 5 µM: 0.16
[2]
  fold induction at 12 h, 0.5 µM: 0.83
[3]
  fold induction at 12 h, 0.5 µM: 0.9
[4]
  fold change (FC): 0.88

## O=C(/C=C/c1ccc(F)cc1)c1ccccc1 [4-FLUORO CHALCONE]
[1]
  fold induction at 12 h, 5 µM: 0.91
[2]
  fold induction at 12 h, 0.5 µM: 0.83
[3]
  fold induction at 12 h, 0.5 µM: 1.1
[4]
  fold change (FC): 0.86

## Cn1c(=O)n(C)c2cc(C(=O)/C=C/c3cccnc3Br)ccc21
[1]
  fold induction at 12 h, 5 µM: 0.22
[2]
  fold induction at 12 h, 0.5 µM: 0.63
[3]
  fold induction at 12 h, 0.5 µM: 0.94
[4]
  fold change (FC): 0.22

## Cn1c(=O)n(C)c2cc(C(=O)/C=C/C=C/c3ccccc3)ccc21
[1]
  fold induction at 12 h, 5 µM: 0.44
[2]
  fold induction at 12 h, 0.5 µM: 0.82
[3]
  fold induction at 12 h, 0.5 µM: 0.62
[4]
  fold change (FC): 0.35

## Cn1c(=O)n(C)c2cc(S(=O)(=O)NCc3ccccc3)ccc21
[1]
  fold induction at 12 h, 5 µM: 0.9
[2]
  fold induction at 12 h, 0.5 µM: 1.1
[3]
  fold induction at 12 h, 0.5 µM: 1.02
[4]
  fold change (FC): 0.94

## Cn1c(=O)n(C)c2cc(C(=O)/C=C/c3ccc4ccccc4c3)ccc21
[1]
  fold induction at 12 h, 5 µM: 0.77
[2]
  fold induction at 12 h, 0.5 µM: 1.18
[3]
  fold induction at 12 h, 0.5 µM: 0.8
[4]
  fold change (FC): 0.47

## Cn1c(=O)n(C)c2cc(C(=O)/C=C/c3cn(Cc4ccccc4)c4ccccc34)ccc21
[1]
  fold induction at 12 h, 5 µM: 0.78
[2]
  fold induction at 12 h, 0.5 µM: 0.52
[3]
  fold induction at 12 h, 0.5 µM: 0.84
[4]
  fold change (FC): 0.33

## Cn1c(=O)n(C)c2cc(C(=O)/C=C/c3c4ccccc4cc4ccccc34)ccc21
[1]
  fold induction at 12 h, 5 µM: 1.06
[2]
  fold induction at 12 h, 0.5 µM: 0.8
[3]
  fold induction at 12 h, 0.5 µM: 1.15
[4]
  fold change (FC): 0.71

## Cn1c(=O)n(C)c2cc(C(=O)/C=C/c3ccccc3P(c3ccccc3)c3ccccc3)ccc21
[1]
  fold induction at 12 h, 5 µM: 0.31
[2]
  fold induction at 12 h, 0.5 µM: 0.72
[3]
  fold induction at 12 h, 0.5 µM: 0.86
[4]
  fold change (FC): 0.16

## Cn1c(=O)n(C)c2cc(C(=O)/C=C/c3ccccc3)ccc21
[1]
  fold induction at 12 h, 5 µM: 0.22
[2]
  fold induction at 12 h, 0.5 µM: 0.71
[3]
  fold induction at 12 h, 0.5 µM: 0.95
[4]
  fold change (FC): 0.28

## Cn1c(=O)n(C)c2cc(C(=O)/C=C/c3cccc(OC(F)(F)F)c3)ccc21
[1]
  fold induction at 12 h, 5 µM: 0.16
[2]
  fold induction at 12 h, 0.5 µM: 0.58
[3]
  fold induction at 12 h, 0.5 µM: 0.62
[4]
  fold change (FC): 0.17

## Cn1c(=O)n(C)c2cc(C(=O)/C=C/c3ccc(B(O)O)cc3F)ccc21
[1]
  fold induction at 12 h, 5 µM: 0.66
[2]
  fold induction at 12 h, 0.5 µM: 0.45
[3]
  fold induction at 12 h, 0.5 µM: 1.02
[4]
  fold change (FC): 0.14

## Cn1c(=O)n(C)c2cc(C(=O)/C=C/c3ccc(F)cc3)ccc21
[1]
  fold induction at 12 h, 5 µM: 0.19
[2]
  fold induction at 12 h, 0.5 µM: 0.47
[3]
  fold induction at 12 h, 0.5 µM: 0.29
[4]
  fold change (FC): 0.08

## Cn1c(=O)n(C)c2cc(C(=O)/C=C/C=C/c3ccc(F)cc3)ccc21
[1]
  fold induction at 12 h, 5 µM: 0.57
[2]
  fold induction at 12 h, 0.5 µM: 0.62
[3]
  fold induction at 12 h, 0.5 µM: 0.82
[4]
  fold change (FC): 0.17

## Cn1c(=O)n(C)c2cc(C(=O)/C=C/c3ccc([N+](=O)[O-])cc3)ccc21
[1]
  fold induction at 12 h, 5 µM: 0.64
[2]
  fold induction at 12 h, 0.5 µM: 0.97
[3]
  fold induction at 12 h, 0.5 µM: 0.79
[4]
  fold change (FC): 0.37

— ChEMBL document CHEMBL6178019, “Discovery of CYP1A1 Inhibitors for Host-Directed Therapy against Sepsis” (J Med Chem, 2025)
